Measurements as given in PubChem BioAssay AID248 (DTP/NCI, 2004).
Where “and” joins values, the source holds several entries; their conditions need not be identical. Equal values may be shown once. Inconclusive results and toxic doses are left out. Cut-off read from the data, not from the text of the source: active = T/C of 150% or more; inactive = T/C below 125%.

System: L1210 leukemia ip in BDF1 mice, survival T/C
Experiment: NCI In Vivo Anticancer Drug Screen. Data for tumor model L1210 Leukemia (intraperitoneal) in B6D2F1 (BDF1) mice
Settings: endpoint: mean survival time, higher = longer survival
In short: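 Ratio derived from survival: compound-dosed mice over vehicle-dosed mice, all bearing a transplantable tumor.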

[1] = dose: 100.0 mg/kg/injection, schedule: Q01DX001 (ip), vehicle: saline
[2] = dose: 200.0 mg/kg/injection, schedule: Q01DX001 (ip), vehicle: saline
[3] = dose: 400.0 mg/kg/injection, schedule: Q01DX001 (ip), vehicle: saline

Measured: T/C

COC1=C(N)C(=O)c2nc(-c3nc(C(=O)O)c(C)c(-c4ccc(OC)c(OC)c4O)c3N)ccc2C1=O
inactive: dose: 0.02 mg/kg/injection, schedule: Q01DX009 (ip), vehicle: other 86 % of control | dose: 0.05 mg/kg/injection, schedule: Q01DX009 (ip), vehicle: other 94 % of control | dose: 0.05 mg/kg/injection, schedule: Q04DX002 (ip), vehicle: saline 106 % of control | dose: 0.1 mg/kg/injection, schedule: Q01DX Z (ip), vehicle: alkali diluted with CMC 103 % of control and 109 % of control | dose: 0.1 mg/kg/injection, schedule: Q01DX Z (ip), vehicle: water 105 % of control | dose: 0.1 mg/kg/injection, schedule: Q04DX002 (ip), vehicle: saline 120 % of control | dose: 0.12 mg/kg/injection, schedule: Q01DX001 (iv), vehicle: other 102 % of control | dose: 0.12 mg/kg/injection, schedule: Q01DX009 (ip), vehicle: saline 106 % of control | dose: 0.18 mg/kg/injection, schedule: Q01DX001 (ip), vehicle: other 124 % of control | dose: 0.2 mg/kg/injection, schedule: Q01DX009 (ip), vehicle: other 102 % of control | dose: 0.2 mg/kg/injection, schedule: Q01DX Z (ip), vehicle: alkali diluted with CMC 96 % of control and 106 % of control | dose: 0.2 mg/kg/injection, schedule: Q01DX Z (ip), vehicle: water 105 % of control | dose: 0.2 mg/kg/injection, schedule: Q04DX002 (ip), vehicle: saline 113 % of control | dose: 0.25 mg/kg/injection, schedule: Q01DX001 (iv), vehicle: other 114 % of control | dose: 0.25 mg/kg/injection, schedule: Q01DX009 (ip), vehicle: saline 106 % of control and 116 % of control | dose: 0.25 mg/kg/injection, schedule: Q01DX015 (ip), vehicle: water 118 % of control | dose: 0.3 mg/kg/injection, schedule: Q01DX Z (ip), vehicle: water 102 % of control | dose: 0.39 mg/kg/injection, schedule: Q04DX002 (ip), vehicle: saline 110 % of control | dose: 0.4 mg/kg/injection, schedule: Q01DX Z (ip), vehicle: alkali diluted with CMC 104 % of control and 106 % of control | dose: 0.45 mg/kg/injection, schedule: Q01DX Z (ip), vehicle: saline 107 % of control | dose: 0.5 mg/kg/injection, schedule: Q01DX001 (ip), vehicle: carboxymethylcellulose (CMC) 95 % of control | dose: 0.5 mg/kg/injection, schedule: Q01DX001 (iv), vehicle: other 105 % of control | dose: 0.5 mg/kg/injection, schedule: Q01DX009 (ip), vehicle: saline 108 % of control and 86 % of control | dose: 0.5 mg/kg/injection, schedule: Q01DX015 (ip), vehicle: water 101 % of control | dose: 0.66 mg/kg/injection, schedule: Q01DX Z (ip), vehicle: saline 110 % of control | dose: 0.75 mg/kg/injection, schedule: Q01DX001 (ip), vehicle: other 118 % of control | dose: 0.78 mg/kg/injection, schedule: Q04DX002 (ip), vehicle: saline 106 % of control | dose: 0.8 mg/kg/injection, schedule: Q01DX Z (ip), vehicle: alkali diluted with CMC 96 % of control and 91 % of control | dose: 1.0 mg/kg/injection, schedule: Q01DX001 (iv), vehicle: other 91 % of control | dose: 1.5 mg/kg/injection, schedule: Q01DX001 (ip), vehicle: other 121 % of control | dose: 1.5 mg/kg/injection, schedule: Q01DX001 (ip), vehicle: saline 120 % of control | dose: 2.0 mg/kg/injection, schedule: Q01DX001 (ip), vehicle: carboxymethylcellulose (CMC) 88 % of control | dose: 2.5 mg/kg/injection, schedule: Q01DX001 (oral), vehicle: water 105 % of control | dose: 5.0 mg/kg/injection, schedule: Q01DX001 (oral), vehicle: water 98 % of control | dose: 10.0 mg/kg/injection, schedule: Q01DX001 (oral), vehicle: water 88 % of control

CCCC1=CN(Cc2ccccc2)c2ccccc2C1
inactive: [1] 96 % of control | dose: 100.0 mg/kg/injection, schedule: Q04DX003 (ip), vehicle: saline 97 % of control | [2] 96 % of control | dose: 200.0 mg/kg/injection, schedule: Q04DX003 (ip), vehicle: saline 97 % of control | [3] 97 % of control | dose: 400.0 mg/kg/injection, schedule: Q04DX003 (ip), vehicle: saline 93 % of control

CCN1CCC2C[N+](C)([O-])CCN2C1=O (stereo unspecified)
inactive: dose: 100.0 mg/kg/injection, schedule: Q04DX003 (ip), vehicle: saline with Tween-80 93 % of control | dose: 200.0 mg/kg/injection, schedule: Q04DX003 (ip), vehicle: saline with Tween-80 95 % of control | dose: 400.0 mg/kg/injection, schedule: Q04DX003 (ip), vehicle: saline with Tween-80 98 % of control

C/C(=C/c1ccccc1)S(=O)(=O)c1ccccc1
inactive: [1] 105 % of control | dose: 100.0 mg/kg/injection, schedule: Q01DX009 (ip), vehicle: saline 91 % of control | [2] 100 % of control | dose: 200.0 mg/kg/injection, schedule: Q01DX009 (ip), vehicle: saline 94 % of control | [3] 105 % of control | dose: 400.0 mg/kg/injection, schedule: Q01DX009 (ip), vehicle: saline 93 % of control

NC(=O)C(c1ccccc1)C1(O)CCCCC1 (stereo unspecified)
inactive: dose: 50.0 mg/kg/injection, schedule: Q01DX001 (ip), vehicle: saline 102 % of control | [1] 104 % of control | [2] 96 % of control | [3] 91 % of control

Cc1c2ccn(CCCCCCCCn3ccc4c(C)c5nc6ccccc6c5c(C)c4c3)cc2c(C)c2c1nc1ccccc12
inactive: dose: 0.78 mg/kg/injection, schedule: Q04DX003 (ip), vehicle: other 98 % of control | dose: 1.56 mg/kg/injection, schedule: Q04DX003 (ip), vehicle: other 104 % of control | dose: 3.13 mg/kg/injection, schedule: Q04DX003 (ip), vehicle: other 104 % of control | dose: 6.25 mg/kg/injection, schedule: Q04DX003 (ip), vehicle: other 112 % of control | dose: 12.5 mg/kg/injection, schedule: Q04DX003 (ip), vehicle: other 118 % of control | dose: 25.0 mg/kg/injection, schedule: Q04DX003 (ip), vehicle: other 115 % of control | dose: 50.0 mg/kg/injection, schedule: Q04DX003 (ip), vehicle: other 98 % of control | dose: 100.0 mg/kg/injection, schedule: Q04DX003 (ip), vehicle: other 109 % of control

CC(=O)NN=C1CCC(=NNC(C)=O)CC1
inactive: dose: 12.5 mg/kg/injection, schedule: Q04DX003 (ip), vehicle: Klucel (hydroxypropylcellulose) (HPC) 97 % of control | dose: 25.0 mg/kg/injection, schedule: Q04DX003 (ip), vehicle: Klucel (hydroxypropylcellulose) (HPC) 94 % of control | dose: 50.0 mg/kg/injection, schedule: Q04DX003 (ip), vehicle: Klucel (hydroxypropylcellulose) (HPC) 108 % of control | dose: 100.0 mg/kg/injection, schedule: Q04DX003 (ip), vehicle: Klucel (hydroxypropylcellulose) (HPC) 110 % of control
